Results reported in ChEMBL document CHEMBL1759924, “Natural products-based insecticidal agents 9. Design, semisynthesis and insecticidal activity of 28-acyloxy derivatives of toosendanin against Mythimna separata Walker in vivo” (2011).
The source made the active and inactive calls. The calls are words filed in the database; no cut-off is given here.

Experiments:
[1] = tested on: Mythimna separata; test: Insecticidal activity against Mythimna separata larvae assessed as malformed pupae during pupation period at day 19; type: functional, organism-based
[2] = tested on: Mythimna separata; test: Insecticidal activity against Mythimna separata Walker assessed as mortality at 1 mg/mL by leaf dipping method; type: functional, organism-based; conditions: TDE = time-dependent effect
[3] = tested on: Mythimna separata; test: Insecticidal activity against Mythimna separata Walker assessed as mortality rate at 1 mg/mL after 35 days by leaf dipping method; type: functional
[4] = tested on: Mythimna separata; test: Insecticidal activity against Mythimna separata assessed as slim and wrinkled body during larval period upto 48 hrs; type: functional, organism-based
[5] = tested on: Mythimna separata; test: Insecticidal activity against Mythimna separata Walker assessed as mortality rate at 1 mg/mL after 20 days by leaf dipping method; type: functional
[6] = tested on: Mythimna separata; test: Insecticidal activity against Mythimna separata Walker assessed as mortality rate at 1 mg/mL after 10 days by leaf dipping method; type: functional
[7] = tested on: Mythimna separata; test: Insecticidal activity against Mythimna separata assessed as malformed moths with imperfect wings at day 27; type: functional, organism-based

Structure (SMILES)	Activity [1]	Activity [2]	Activity [3] [%]	Activity [4]	Activity [5] [%]	Activity [6] [%]	Activity [7]
CC(=O)O[C@H]1OC[C@@]23[C@H]4C(=O)[C@H](OC(C)=O)[C@@]5(C)C(c6ccoc6)C[C@H]6O[C@]65[C@]4(C)[C@H](O)C[C@H]2[C@]1(C)[C@H](OC(C)=O)C[C@@H]3O (single isomer, unassigned)	Active	tde	50	Active	26.9	24.1	–
CCC(=O)O[C@H]1OC[C@@]23[C@H]4C(=O)[C@H](OC(C)=O)[C@@]5(C)C(c6ccoc6)C[C@H]6O[C@]65[C@]4(C)[C@H](O)C[C@H]2[C@]1(C)[C@H](OC(C)=O)C[C@@H]3O (single isomer, unassigned)	–	tde	53.9	Active	30.8	24.1	–
CCCC(=O)O[C@H]1OC[C@@]23[C@H]4C(=O)[C@H](OC(C)=O)[C@@]5(C)C(c6ccoc6)C[C@H]6O[C@]65[C@]4(C)[C@H](O)C[C@H]2[C@]1(C)[C@H](OC(C)=O)C[C@@H]3O (single isomer, unassigned)	Active	tde	73.1	–	42.3	31	–
CC(=O)O[C@@H]1C[C@H](O)[C@@]23CO[C@H](OC(=O)c4ccccc4)[C@]1(C)[C@@H]2C[C@@H](O)[C@]1(C)[C@@H]3C(=O)[C@H](OC(C)=O)[C@@]2(C)C(c3ccoc3)C[C@H]3O[C@@]312 (single isomer, unassigned)	–	tde	46.2	–	23.1	20.7	Active
CC(=O)O[C@@H]1C[C@H](O)[C@@]23CO[C@H](OC(=O)c4ccc(Cl)cc4)[C@]1(C)[C@@H]2C[C@@H](O)[C@]1(C)[C@@H]3C(=O)[C@H](OC(C)=O)[C@@]2(C)C(c3ccoc3)C[C@H]3O[C@@]312 (single isomer, unassigned)	Active	tde	50	Active	26.9	20.7	–
CC(=O)O[C@@H]1C[C@H](O)[C@@]23CO[C@H](OC(=O)c4cccc(Cl)c4)[C@]1(C)[C@@H]2C[C@@H](O)[C@]1(C)[C@@H]3C(=O)[C@H](OC(C)=O)[C@@]2(C)C(c3ccoc3)C[C@H]3O[C@@]312 (single isomer, unassigned)	–	tde	46.2	–	34.6	27.6	Active
CC(=O)O[C@@H]1C[C@H](O)[C@@]23CO[C@H](OC(=O)c4ccccc4Cl)[C@]1(C)[C@@H]2C[C@@H](O)[C@]1(C)[C@@H]3C(=O)[C@H](OC(C)=O)[C@@]2(C)C(c3ccoc3)C[C@H]3O[C@@]312 (single isomer, unassigned)	–	tde	38.5	Active	23.1	20.7	Active
COc1ccc(C(=O)O[C@H]2OC[C@@]34[C@H]5C(=O)[C@H](OC(C)=O)[C@@]6(C)C(c7ccoc7)C[C@H]7O[C@]76[C@]5(C)[C@H](O)C[C@H]3[C@]2(C)[C@H](OC(C)=O)C[C@@H]4O)cc1 (single isomer, unassigned)	–	tde	42.3	–	26.9	20.7	–
CC(=O)O[C@@H]1C[C@H](O)[C@@]23CO[C@H](OC(=O)c4ccc([N+](=O)[O-])cc4)[C@]1(C)[C@@H]2C[C@@H](O)[C@]1(C)[C@@H]3C(=O)[C@H](OC(C)=O)[C@@]2(C)C(c3ccoc3)C[C@H]3O[C@@]312 (single isomer, unassigned)	–	tde	42.3	–	26.9	24.2	Active
CC(=O)O[C@@H]1C[C@H](O)[C@@]23CO[C@H](OC(=O)/C=C/c4ccccc4)[C@]1(C)[C@@H]2C[C@@H](O)[C@]1(C)[C@@H]3C(=O)[C@H](OC(C)=O)[C@@]2(C)C(c3ccoc3)C[C@H]3O[C@@]312 (single isomer, unassigned)	Active	tde	61.5	–	38.5	20.7	–
CC(=O)O[C@@H]1C[C@H](O)[C@@]23CO[C@H](OC(=O)CCc4ccccc4)[C@]1(C)[C@@H]2C[C@@H](O)[C@]1(C)[C@@H]3C(=O)[C@H](OC(C)=O)[C@@]2(C)C(c3ccoc3)C[C@H]3O[C@@]312 (single isomer, unassigned)	–	tde	53.9	–	30.8	20.7	Active
CC(=O)O[C@@H]1C[C@H](O)[C@@]23CO[C@H](OC(=O)Cc4ccccc4)[C@]1(C)[C@@H]2C[C@@H](O)[C@]1(C)[C@@H]3C(=O)[C@H](OC(C)=O)[C@@]2(C)C(c3ccoc3)C[C@H]3O[C@@]312 (single isomer, unassigned)	–	tde	42.3	–	26.9	24.1	–
CC(=O)O[C@@H]1C[C@H](O)[C@@]23CO[C@@H](O)[C@]1(C)[C@@H]2C[C@@H](O)[C@]1(C)[C@@H]3C(=O)[C@H](OC(C)=O)[C@@]2(C)[C@H](c3ccoc3)C[C@H]3O[C@]321 [TOOSENDANIN]	–	tde	50	–	30.8	24.1	–
